Laboratory results taken from US12577232B2, “N-heterocycle substituted tryptamine derivatives and methods of using” (ENVERIC B[…] INC., priority 2024, dated 2026).

Key:
[1] = after intravenous (and oral) psilocybin administration (Raithatha et al., 2023); cited from earlier work
5-HT2A receptor [2] = target: T1, 5-HT2A receptor (Homo sapiens, UniProt P28223); assay: Functional cell-based 5-HT2A assay, antagonism mode (CHO-K1/5-HT2A, 100 nM serotonin, calcium flux); conditions: CHO-K1/5-HT2A cells, with 100 nM serotonin
T1 construct: purchased PerkinElmer ES-313-M400UA
Description: A variety of 5-HT2A receptor engagement modes have been correlated with positive outcomes in the treatment of neurological disorders. While agonism is associated with a host of favourable effects, antagonizing the 5-HT2A receptor is also an attractive pharmacological approach. For example, antagonism is known to alleviate both dyskinesisa and psychosis in Parkinson's Disorder and holds promise for other psychiatric diseases (Mestre et al., 2013, Expert Opin. Investig. Drugs 22:411-421). Similarly positive outcomes are noted for inverse agonists (Cummings et al., 2014, Lancet, 383:533-540; Roberts, 2006, Curr. Opin. Invest. Drugs 7:653-660). […]
Stimulation of 5-HT2A coupled to the Gq family proteins leads to activation of the phospholipase C (PLC) pathway, ultimately resulting in the accumulation of cytosolic calcium (Cussac et al., Europ. J. Pharmacol., 2008, 594 (1-3), 32-38). […] Kinetic increases in intracellular calcium levels were measured immediately after addition of ligands every 6.4 s for a total of 3 min using the FlexStation 3 multimode microplate reader and SoftMax Pro 7.1 analysis software (Molecular Devices, moleculardevices.com). […] IC50 values were calculated from the normalized data from GraphPad PRISM software. […]

5-HT2A receptor [3] = target: T1, 5-HT2A receptor; assay: Functional cell-based 5-HT2A assay, agonism mode (CHO-K1/5-HT2A, Fluo-8 calcium flux); conditions: CHO-K1/5-HT2A cells
Experimental: Herein, functional, cell-based assays were conducted to determine (1) agonist potency and efficacy of drugs at the 5-HT2A receptor (agonist mode), and (2) antagonist potency at the 5-HT2A receptor (antagonist mode).
All cells were grown and maintained as a monolayer in Ham's F12 nutrient mix supplemented with 10% fetal bovine serum (FBS) and 400 μg/mL geneticin (G418) all from ThermoFisher Scientific and used according to the manufacturer's instructions. Cells were cultured and incubated at 37° C. in a humidified oxygen atmosphere with 5% CO2. To evaluate the activation of 5-HT2A signal transduction, cells were first seeded in tissue culture-treated, black-walled, clear-bottom 96-well plates (Thermo Scientific) at a density of 40,000 cells/well in 100 pl Ham's F12 nutrient mix supplemented with 2% FBS. Cells were cultured for 24 h in a humidified incubator at 37° C. and 5% CO2. Cells were then loaded with Fluo-8 calcium indicator dye for 1 h at 37° C. and an additional 30 min at room temperature as per the manufacturer's protocol. […] Kinetic increases in intracellular calcium levels were measured immediately after addition of test compounds every 6.4 s for a total of 3 min using the FlexStation 3 multimode microplate reader and SoftMax Pro 7.1 analysis software (Molecular Devices, moleculardevices.com). […] EC50 values were calculated from the normalized data from GraphPad PRISM software.

[4] = tested on: stressed C57BL/6-Elite mice; assay: Mouse sucrose preference (SP) assay to assess antidepressant potential; type: in vivo; conditions: i.p., psilocin 3 mg/kg, compound (XV) 10 mg/kg; one day after administration
Experimental: Reduced intake of pleasurable substances, e.g., of sucrose water, is a validated behavioral measure of anhedonic/depressive-like state in rodents (Moreau et al., 1992, Eur. Neurpsychopharmocol. 2:43-49; Liu et al., 2018, Nature Protocols 13:1686-1698). […] In the SP assay, cohorts of mice are pre-stressed, leading to a depressed state. The ability of drugs to rescue this state are evaluated.
All animal protocols were approved by the University of Calgary Animal Care and Use Committee. C57BL/6-Elite mixed sex mice were obtained from Charles River Laboratories (Toronto, Canada) at 8-9 weeks old. Mice were maintained on a 12:12 h light/dark schedule (lights on at 07:00 hours) with ad libitum access to food and water and group-housed until 2 days prior to the start of the mild chronic stress paradigm, then mice were single-housed. […]
Mice were introduced to 1% sucrose solution in their drinking water for 24 hrs for 2 days prior to initial sucrose preference testing to reduce impact of novelty. […] The consumption in water, sucrose solution, and total intake of liquids was measured by weighing each bottle before and after the 24-hr experiment. The preference for sucrose was calculated as a percentage of the consumed sucrose solution from the total intake of both water and sucrose solutions. […]

[5] = tested on: stressed C57BL/6-Elite mice; assay: Mouse marble burying (MB) assay to assess anxiolytic potential; type: in vivo; conditions: i.p., psilocin 3 mg/kg, compound (XV) 10 mg/kg; vs Vehicle+Stress
Experimental: Marble burying behavior is used to measure the level of anxiety in a rodent when it encounters unfamiliar objects (Deacon, 2006, Nature Protocols 1:122-124). This assay is routinely applied to the study of chronically stressed mice, where drug candidates are evaluated for an ability to diminish stress-induced, anxiety-like behaviours (e.g., Wang et al., ACS Chem. Neurosci. 14:977-987). Positive results in this assay may be interpreted as an indication of therapeutic (anxiolytic) potential in the treatment of various psychiatric disorders. Herein, we applied the marble burying model to investigate whether selected drugs could alleviate anxiety behaviour in stressed mice.
All animal protocols were approved by the University of Calgary Animal Care and Use Committee. C57BL/6-Elite mixed sex mice were obtained from Charles River Laboratories (Toronto, Canada) at 8-9 weeks old. […]
On the testing days, 10 glass marbles (approx. 15 mm in diameter) were evenly spaced on 5 cm of wood-chip bedding (lightly tamped down to make a flat and even surface). […] The number of marbles buried to ⅔rds their depth was measured. Fully buried marbles were counted as 1 and partially (at least ⅔rds) buried marbles were counted as 0.5. […]

T1 sequence (P28223 whole entry): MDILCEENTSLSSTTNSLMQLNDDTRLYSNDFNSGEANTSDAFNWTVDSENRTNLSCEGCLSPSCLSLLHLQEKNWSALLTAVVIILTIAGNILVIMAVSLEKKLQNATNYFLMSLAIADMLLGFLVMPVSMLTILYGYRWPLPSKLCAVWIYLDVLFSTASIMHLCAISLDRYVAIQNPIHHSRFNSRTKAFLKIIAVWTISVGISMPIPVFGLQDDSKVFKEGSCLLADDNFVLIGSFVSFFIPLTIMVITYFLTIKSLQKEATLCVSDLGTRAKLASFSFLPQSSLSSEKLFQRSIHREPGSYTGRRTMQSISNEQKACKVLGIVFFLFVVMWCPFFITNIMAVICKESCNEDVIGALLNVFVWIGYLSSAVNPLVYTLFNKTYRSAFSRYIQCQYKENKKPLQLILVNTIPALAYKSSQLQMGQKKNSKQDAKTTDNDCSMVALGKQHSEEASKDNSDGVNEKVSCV

SMILES: CN(C)CCc1c[nH]c2cccc(O)c12 [psilocin, reference compound]
- persistence in plasma [1]: > 8 h
- engagement at the 5-HT2A receptor, antagonist mode (5-HT2A receptor [2]): antagonism
- engagement at the 5-HT2A receptor, agonist mode (5-HT2A receptor [3]): agonism
- sucrose preference behaviour in stressed mice vs no drug control [4]: significantly elevated
- anxiety-linked (marble burying) behavior in stressed mice [5]: rescued
